The record followed here is a melting point compilation (Tetko et al.; mined from patent text by program, amines drawn as free bases though some values may be those of a salt).

What is called melting point is the temperature of the solid-liquid transition. Consider `Clc1nc(Cl)nc(N2CC3CCC(CC3)C2)n1`, for which the melting point lay within 153 to 154 °C.
The same measure for `O=C(O)C=CC(=O)NCCC(F)=C(F)F`: 64 to 66 °C.
`O=C(c1ccccc1)c1ccc[nH]1` displayed a melting point of 76 to 77 °C.
The value for `O=C(Cn1nnc2ccccc21)Nc1ccc(-n2nc(C(F)(F)F)cc2C2CC2)cc1` was 200 to 204 °C; that for `COc1cc(Nc2nc3cccc(-c4ccc(C(N)=O)cc4)c3o2)cc(OC)c1OC` was over 280 °C; that for `CN(C)CC(=O)Nc1ccccc1[N+](=O)[O-]` was 44 to 47 °C.
The value for `CCOC(=O)OCC1OC(n2cc(C=CBr)c(=O)[nH]c2=O)CC1Cl` (stereo not given) was 181 °C; that for `CCCCCCCCCCCCNC(=O)C1CCC(=O)N1` (stereo not given) was 114 to 116 °C; that for `CC(C)(C)c1ccc(C(=O)CCCN2CCC(C(=O)c3nc4ccccc4n3Cc3ccc(F)cc3)CC2)cc1` was 105 to 106 °C.
The same measure for `COc1ccc(-n2nc(CCN)cc2-c2ccc(Cl)cc2)cc1`: 95 to 97 °C; for `O=C(O)C1(c2cccs2)CC1`: 116 to 118 °C.
`CCC(CO)(OC)c1ccc(-c2ccc(OC)cc2)cc1` (stereo not given) yielded a melting point of 108 to 109 °C.
The same measure for `CC(C)(C)C(=O)COc1ccc(Cl)cc1Cl`: 65 °C.
The same measure for `COc1ccccc1N1CCN(CCNC(=O)CCN2CCC(c3c[nH]c4cc(Cl)ccc34)CC2)CC1`: 69 to 71 °C.
The value for `Nc1cc2c(Nc3ccc(F)c(Br)c3)ncnc2cn1` was 269 to 271 °C.
`COc1cc2c(cc1F)C1(CO2)C(=O)N(Cc2ccccc2)c2ccccc21` (stereo not given) came in with a melting point of 160 to 162 °C.
The value for `CC(=O)OCC1OC(Cl)C(N=[N+]=[N-])C(OC(C)=O)C1OC(C)=O` (stereo not given) was 102 to 104 °C; that for `CC(C)c1cccc(COCCCO)c1NC(=O)CC1c2ccccc2Oc2ccccc21` was 150 to 151 °C; that for `CC(C)CC1(C(CCNC(=O)c2ccc(F)c(F)c2)C(=O)OC(C)(C)C)CCN(CCc2ccccc2)C1=O` (stereo not given) was 147 to 148 °C.
The same measure for `COC(=O)C(C)(C)OCC#Cc1cc(C(F)(F)F)ccc1NS(=O)(=O)c1cc(C)cc(C)c1`: 128 to 130 °C; for `CC(C)CCc1c(-c2ccc(S(N)(=O)=O)cc2)cnn(-c2cccc(Cl)c2)c1=O`: 167 to 170 °C.
Regarding `CSc1cc2c(cc1F)C(=O)c1cc3ccccc3cc1C2=O`, the melting point is 230 to 235 °C.
As for `O=c1cc(Nc2ccc3c(c2)CCC3)[nH]c(=S)[nH]1`, the melting point was in the range of 269 to 272 °C.
The same measure for `Cc1c(N2C[C@@H](N)[C@@H](C(C)C)C2)c(F)cc2c(=O)c(C(=O)O)cn([C@@H]3C[C@@H]3F)c12`: 124 to 127 °C; for `COc1cccc2c1c(S(N)(=O)=O)nn2C`: 268 to 270 °C; for `O=C(NCc1ccccc1)Nc1cc(N2CC(c3ccccc3)CC2=O)ccn1` (stereo not given): 165 to 166 °C.
The same measure for `O=C(NCCC12CC3CC(CC(C3)C1)C2)c1ccccc1Cl`: 125 to 127 °C.
The value for `Fc1ccc(Cc2ccccc2N2CCN(c3ccncc3)CC2)cc1` was 110 to 111 °C; that for `O=C1CCC(Cc2ccc3ccccc3c2)=C1O` was 120 to 122 °C; that for `COC(=O)C1=C(C)NC(C)=C(C(=O)OCCN2CCN(C(c3ccc(Cl)cc3)c3ccc(Cl)cc3)CC2)C1c1cccc(Cl)c1Cl` (stereo not given) was 104 to 107 °C.
The compound `O=C(Cc1ccccc1NS(=O)(=O)C(F)(F)F)N1CCOCC1` came in with a melting point of 95.5 to 97 °C.
The value for `CS(=O)c1ccc(-c2nc3n(c2-c2ccncc2)CCC3)cc1` (stereo not given) was 164 to 166 °C; that for `CSCCO[C@@H]1c2ccn3c(C)c(C)nc3c2N[C@H](c2ccccc2)[C@H]1O` was 118 to 119 °C; that for `Nc1cc(Cl)cc2c1NCCC2=O` was 142 to 144 °C.
The value for `O=C(CCCl)N1Cc2cccc3[nH]cc(c23)C1` was 158 to 161 °C; that for `O=C(NN1CCCCC1)c1ccc(-c2ccc(Cl)cc2)c(-c2ccc(Cl)cc2Cl)c1` was 182 °C.
The value for `CCCCC(=O)Nc1ccccc1C(F)(F)F` was 63 °C.
`O=C(Nc1cc(C(F)(F)F)ccc1N1CCCCC1)c1ccncc1` showed a melting point of 96 to 98 °C.
The compound `CCCc1c(OCCCSc2ccc(C(=O)COC(C)=O)cn2)ccc(C(C)=O)c1O` showed a melting point of 93 to 95 °C.
The value for `COc1ccc(C(=O)c2cccc(NC(=O)c3ccn4c3CSC4c3cccnc3)c2)cc1` (stereo not given) was 140 °C; that for `CCc1cc2c(O)c(C(=O)OCC(C)C)cnc2s1` was 156 to 158 °C; that for `COc1ccccc1N1CCN(C(=O)Nc2cc(C(C)=O)c(C)nc2OC)CC1` was 153 to 154 °C.
`O=Cc1c2ccccc2c(Cl)c2ccc(Cl)cc12` came in with a melting point of 176 °C.
The value for `CCCCc1nn(-c2cccc([N+](=O)[O-])c2)c(=O)n1Cc1ccc(-c2ccccc2S(=O)(=O)NC(C)(C)C)cc1` was 164 to 165 °C; that for `NC(=O)CN1C(=O)[C@@H](N)[C@H](c2ccccc2)Sc2ccccc21` (relative stereo) was 196 to 200 °C.
The value for `O=[N+]([O-])c1cc(-c2nc3ccccc3s2)cc([N+](=O)[O-])c1` was 73.5 to 84.5 °C.
The same measure for `CCS(=O)c1c(C#N)nn(-c2c(Cl)cc(C(F)(F)F)cc2Cl)c1NC` (stereo not given): 142 °C; for `CC(C#N)c1ccc(C(=O)c2ccc(Cl)s2)cc1` (stereo not given): 90 °C; for `COc1ccc(NC(=O)c2c(Cl)cccc2Cl)c2nccc(N3CCN(C)C3=O)c12`: 227 to 237 °C.
Turning to `CNC1(c2ccccc2)CCC(=O)CC1`, the melting point was in the range of 32 to 38 °C.
In turn, `O=C(NCC(O)c1ccccc1)C1CCCCC1` (stereo not given) had a melting point of 118 to 119 °C.
The compound `CCCCCCCCCCC(O)c1ccc2oc([N+](=O)[O-])c(-c3ccccc3)c2c1` (stereo not given) yielded a melting point of 84 to 85 °C.
The value for `Cc1ccc(S(=O)(=O)Oc2ccc(S(=O)(=O)C3Cc4ccccc4C3Cl)cc2)cc1` (stereo not given) was 176 °C; that for `O=C(CCCl)Nc1ccc(C(=O)c2ccccc2)cc1` was 135 to 136 °C.
The same measure for `COc1cccc(NCC(=O)Nc2ccc(S(N)(=O)=O)cc2Cl)c1`: 148 to 152 °C; for `O=C1CCCc2nc(-c3ccccc3)ccc21`: 128 to 130 °C.
The value for `CC(O)(c1ccccc1)C1CCNCC1` (stereo not given) was 172 to 175 °C; that for `CCCCCc1cc2c(nc(O)n2CC2CCN(S(C)(=O)=O)CC2)c(N)n1` was 228 to 231 °C; that for `C#CCN(C(=O)C1CC1)c1cccc(-c2ccnc3c(C(=O)c4cccs4)cnn23)c1` was 221 to 223 °C.
On to `Cc1sc(-c2ccc(Br)cc2)nc1O`, for which the melting point fell in the range of 206 to 207 °C.
The same measure for `CCN(CC)C(C(C(=O)C(C)(C)C)n1cncn1)C(Cl)(Cl)Cl` (stereo not given): 103 to 110 °C; for `COc1nc(=O)[nH]cc1C`: 196 to 199 °C; for `CCn1c(=O)sc2cc([N+](=O)[O-])ccc21`: 200 to 203 °C.
The value for `O=C1CSCN1CC#CCN1CCC(n2c(=O)[nH]c3ccccc32)CC1` was 202 to 204 °C; that for `Cc1cn(Cc2ccc(F)cc2)c(C)c1C(=O)CC(=O)C(=O)O` was 184 to 185 °C; that for `COCCOc1cc(OC)c2c(=O)[nH]c(-c3cc(C)nc(C)c3)nc2c1` was 229 to 230 °C.
The value for `CNc1cnn(-c2ccc(F)cc2)c(=O)c1-c1cccc(C(F)(F)F)c1` was 161 to 162 °C; that for `COC(=O)Nc1ccc(-c2cccc(C3=NC(C)(C)Cc4cc(OC)c5c(c43)CC(C)(C)O5)c2)cc1` was 129 to 133 °C; that for `CCCc1nc2c(N)nc3cc(-c4ccccc4)ccc3c2n1NC(C)C` was 217 to 220 °C.
For the compound `CCCCCCCCCCCCCCCc1cc2cc(C(=O)O)ccc2[nH]1`, the melting point lay within 108 to 110 °C.
The same measure for `COC(=O)Cn1c(C)ccc1C`: 44 to 46 °C; for `CC(C)(N)COc1ccc(O)c(C(N)=O)c1`: 115 to 117 °C.
On to `CC(=Cc1ccc(N(C)C)cc1C)[N+](=O)[O-]`, for which the melting point lay within 75 to 76 °C.
The same measure for `COc1cc2ncnc(N3CCCCCc4ccccc43)c2cc1OC`: 204 to 207 °C.
The value for `O=C1c2ccccc2C(=O)N1CCCOc1cccc2[nH]c3ccccc3c12` was 171 to 172 °C; that for `CC(C)(C)OC(=O)N1CCC(O)(c2ccc(Oc3ccc(NC(=O)c4ccc(Cl)c(Cl)c4)cc3)cc2)CC1` was 208 to 209 °C.
Consider `COc1ccc(/C=C/c2ccccc2[N+](=O)[O-])c([N+](=O)[O-])c1`, for which the melting point lay within 142 to 143 °C.
The value for `CCc1nc2c(C)c(C#N)c(C)cc2n1-c1ccc(CCNC(=O)NS(=O)(=O)c2ccc(C)cc2)cc1` was 140 to 145 °C; that for `CC(C(=O)O)c1ccc(Oc2ccccc2F)cc1` (stereo not given) was 106 to 108 °C.
The same measure for `Cc1cccc(C)c1CNc1cc(S(=O)(=O)N(C)C)cc2c1nc(C)n2C`: 237 to 238 °C; for `COc1ccc(C(O)Cc2ccccn2)cc1OC1CCCC1` (stereo not given): 94 to 96 °C; for `COc1ccc2c(c1)sc1nc(N)nc(=Nc3ccc(O)cc3)n12`: over 255 °C.
`CN(C(=O)Cc1ccc(Cl)c(Cl)c1)[C@@H]1Cc2ccccc2C[C@H]1N1CCCC1` (relative stereo) had a melting point of 161 to 164 °C.
The value for `Nc1cn(-c2cccnc2)nc1C(F)(F)F` was 112 to 115 °C; that for `COc1c(CN)c2c(c3c1OC(C)(C)C3)C(c1ccccc1)=NC(C)(C)C2` was 140 to 142 °C.
The same measure for `CCC(CC)c1ccc(Cl)c2nc3n(c12)CCN3C(=O)c1c(C)cc(C)cc1C`: 234 to 236 °C; for `Cc1ccc(-c2ccc(C)c(C(N)=O)c2N)cc1`: 250 °C.
Turning to `CCOc1c(C=C2CCn3c2nc2cc(NC(=O)C(=O)O)ccc2c3=O)cccc1OC`, the melting point fell in the range of 220 to 222 °C.
The value for `O=C(O)C(=O)CC(=O)c1cccn1Cc1ccc(Cl)cc1` was 182 to 184 °C.
The value for `COc1ccc(C2CC(=O)C(C(=O)O)=CN2C2CC2)cc1` (stereo not given) was 137 to 139 °C.
